According to US9708251B2, “Unsaturated fatty alcohol alkoxylates from natural oil metathesis” (Stepan Company, priority 2012, dated 2017):

Legend:
[1] = Surfactant phase behavior study (cross-polarized microscopy); assay type: physicochemical; settings: room temperature, in deionized water
Method in brief: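 Saturated analogs serve as comparators. Water dilutions of the product, stepped at 2-4% near transitions, equilibrated between slide and cover glass and assigned phase by cross-polarized microscopy texture at 100-400×, 20-22° C. Boundaries lie within ±5% actives; some samples checked by viscosity at 25° C.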

[2] = Emulsion stability testing of nonionic emulsifiers, aromatic solvent series; assay type: physicochemical; design: key to 24 h separation, appearance / 1 h separation, appearance / 1 h separation, amount: C = creamy; CO = creamy oil; O = oil; GC = gritty cream; NS = no separation; OC = oily cream; key to Spon. (spontaneity): G = good; F = fair; P = poor
[3] = Emulsion stability testing of nonionic emulsifiers, Hallcomid solvent series; assay type: physicochemical; design: key: C = creamy; CO = creamy oil; O = oil; GC = gritty cream; NS = no separation; OC = oily cream; Tr. = trace; settings: Bifenthrin 240 g/L in Hallcomid M-8-10, 34 ppm water
Experimental: Nonionic samples contain a low amount of water (<1%) and are prepared as emulsifiable concentrates with three pesticides using two different solvent systems. In the aromatic solvent series, the nonionic sample replaces Toximul® 8240 (castor oil ethoxylate, 36 POE, Stepan), and in the Hallcomid™ (N,N-dimethylcaprylamide/N,N-dimethylcapramide, Stepan) solvent series, the nonionic sample replaces Ninex® MT-630F.
Hallcomid Solvent Series.
Sample preparation: The surfactants are combined and stirred until homogeneous, with the nonionic sample melted if needed prior to combination. Controls 1-3 are made by using Ninex MT-630F in the amounts indicated instead of the nonionic sample.
Emulsion Stability Testing
A Mohr pipette is used to feed pesticide/surfactant concentrates to each cylinder.

[4] = as above; assay type: physicochemical; design: key to 24 h separation, appearance / 1 h separation, appearance / 1 h separation, amount: C = creamy; CO = creamy oil; O = oil; GC = gritty cream; NS = no separation; OC = oily cream; key to Spon. (spontaneity): G = good; F = fair; P = poor
[5] = Fabric cleaning: compaction (surfactant blends); assay type: physicochemical
Experimental: The sample is formulated into surfactant blends having high actives content. Two experimental derivatives, A12-13 and A12-21, are evaluated.
In a first experiment, a three-component surfactant blend is prepared. This blend comprises the experimental sample (30 wt. %), a linear alkylbenzene sulfonate (15 wt. %), and an alkyl ether sulfate (15 wt. %). The appearance and viscosity of the blend are compared with those of similar three-component blends in which a standard alcohol ethoxylate replaces the experimental sample.
In a second experiment, a two-component surfactant blend is prepared in which the experimental sample and a linear alkylbenzene sulfonate are combined at a 1:1 actives ratio, beginning with a high actives blend having a cloudy appearance. Water is gradually added and mixed with the surfactant blend at room temperature. […]

[6] = Performance as a latex paint additive (formulation, KU, rating); settings: initial KU of 90; additive 1% active based on latex solids
Experimental: Titanium dioxide slurry (Dupont Ti-Pure® R746) is charged to a container, followed by deionized water and propylene glycol, and the contents are mixed (500 rpm). […] The pH is adjusted to 9.0 using ammonium hydroxide solution. The batch is mixed for 30 min. and then allowed to stand for at least 2 h. […] Viscosity is adjusted to an initial KU of 90 with more thickener.

[7] = Emulsion stability testing of nonionic emulsifiers, Hallcomid solvent series; assay type: physicochemical; design: key: C = creamy; CO = creamy oil; O = oil; GC = gritty cream; NS = no separation; OC = oily cream; settings: Bifenthrin 240 g/L in Hallcomid M-8-10, 34 ppm water
[8] = 2,4-D ester 480 g/L in Exxsol D-110, 34 ppm water
[9] = 2,4-D ester 480 g/L in Exxsol D-110, 1000 ppm water
[10] = Bifenthrin 240 g/L in Aromatic 100, 34 ppm water
[11] = Bifenthrin 240 g/L in Aromatic 100, 1000 ppm water
[12] = Tebuconazole 360 g/L in N-methyl-2-pyrrolidone, 34 ppm water
[13] = Tebuconazole 360 g/L in N-methyl-2-pyrrolidone, 1000 ppm water
[14] = 2,4-D diester 480 g/L in Hallcomid M-8-10, 34 ppm water
[15] = 2,4-D diester 480 g/L in Hallcomid M-8-10, 1000 ppm water
[16] = Bifenthrin 240 g/L in Hallcomid M-8-10, 34 ppm water
[17] = Bifenthrin 240 g/L in Hallcomid M-8-10, 1000 ppm water
[18] = Tebuconazole 360 g/L in Hallcomid M-8-10, 34 ppm water
[19] = Tebuconazole 360 g/L in Hallcomid M-8-10, 1000 ppm water
[20] = three-component blend: sample 30 wt. %, linear alkylbenzene sulfonate 15 wt. %, alkyl ether sulfate 15 wt. %

CCC=CCCCCCCCCOCCOCCOCCOCCOCCO (mixture of isomers) [A12-10]
Lamellar phase region [1]: 50-80 % Actives Level | Lamellar/Isotropic phase region [1]: 35-50 % Actives Level | 1 h separation, amount [2, 8]: 0.7 mL | 1 h separation, appearance [2, 8]: C | 24 h separation, amount [2, 8]: 3.9 mL | 24 h separation, appearance [2, 8]: C | Spon. (spontaneity) [2, 8]: F | 1 h separation, amount [2, 9]: 4.6 mL | 1 h separation, appearance [2, 9]: CO | 24 h separation, amount [2, 9]: 0.75 O, 4.3 CO | Spon. (spontaneity) [2, 9]: P | 1 h separation, amount [2, 10]: 2.3 mL | 1 h separation, appearance [2, 10]: C | 24 h separation, amount [2, 10]: 9 mL | 24 h separation, appearance [2, 10]: C | Spon. (spontaneity) [2, 10]: F | Spon. (spontaneity) [2, 11]: F | 1 h separation, amount [2, 12]: 2.6 mL | 1 h separation, appearance [2, 12]: C | 24 h separation, amount [2, 12]: 4 mL | 24 h separation, appearance [2, 12]: GC | Spon. (spontaneity) [2, 12]: P | 1 h separation, amount [2, 13]: 2.1 mL | 1 h separation, appearance [2, 13]: C | 24 h separation, amount [2, 13]: 3.2 mL | 24 h separation, appearance [2, 13]: GC | Spon. (spontaneity) [2, 13]: P | 24 h separation, amount [3]: Tr. | 1 h separation, amount [4, 14]: 5.3 mL | 1 h separation, appearance [4, 14]: C | 24 h separation, amount [4, 14]: 9.2 mL | 24 h separation, appearance [4, 14]: C | Spon. (spontaneity) [4, 14]: P | 1 h separation, amount [4, 15]: 6.8 mL | 1 h separation, appearance [4, 15]: C | 24 h separation, amount [4, 15]: 8.7 mL | 24 h separation, appearance [4, 15]: C | Spon. (spontaneity) [4, 15]: F | 1 h separation, amount [4, 16]: NS | 24 h separation, appearance [4, 16]: C | Spon. (spontaneity) [4, 16]: G | 1 h separation, amount [4, 17]: 6.1 mL | 1 h separation, appearance [4, 17]: O | 24 h separation, amount [4, 17]: 3 O, 2 CO | Spon. (spontaneity) [4, 17]: F | 1 h separation, amount [4, 18]: 2.1 mL | 1 h separation, appearance [4, 18]: C | 24 h separation, amount [4, 18]: 5.1 mL | 24 h separation, appearance [4, 18]: C | Spon. (spontaneity) [4, 18]: F | 1 h separation, amount [4, 19]: 2 mL | 1 h separation, appearance [4, 19]: C | 24 h separation, amount [4, 19]: 4.2 mL | 24 h separation, appearance [4, 19]: C | Spon. (spontaneity) [4, 19]: F

CCC=CCCCCCCCCOCCOCCOCCOCCOCCOCCOCCO (mixture of isomers) [A12-13]
Appearance, 25° C. [5, 20]: cloudy, flowable gel | Viscosity [5, 20]: 5400 cPs | % Actives at which blend is clear and homogeneous at 25° C. ([5]; two-component blend with linear alkylbenzene sulfonate, 1:1 actives ratio): 41 % Actives | Hexagonal phase region [1]: 35-57 % Actives Level | 1 h separation, amount [2, 8]: 3.5 mL | 1 h separation, appearance [2, 8]: C | 24 h separation, amount [2, 8]: 5 mL | 24 h separation, appearance [2, 8]: C | Spon. (spontaneity) [2, 8]: F | 1 h separation, amount [2, 9]: 5.2 mL | 1 h separation, appearance [2, 9]: CO | 24 h separation, amount [2, 9]: 5 mL | 24 h separation, appearance [2, 9]: CO | Spon. (spontaneity) [2, 9]: F | 1 h separation, amount [2, 10]: 1 mL | 1 h separation, appearance [2, 10]: C | 24 h separation, amount [2, 10]: 4.9 mL | 24 h separation, appearance [2, 10]: C | Spon. (spontaneity) [2, 10]: F | 1 h separation, amount [2, 11]: Tr. | 1 h separation, appearance [2, 11]: C | 24 h separation, amount [2, 11]: 0.5 CO, 1 C | Spon. (spontaneity) [2, 11]: G | 1 h separation, amount [2, 12]: 1.8 mL | 1 h separation, appearance [2, 12]: C | 24 h separation, amount [2, 12]: 3 GC, 4 CO | Spon. (spontaneity) [2, 12]: P | 1 h separation, amount [2, 13]: 2.4 mL | 1 h separation, appearance [2, 13]: C | 24 h separation, amount [2, 13]: 3.5 mL | 24 h separation, appearance [2, 13]: GC | Spon. (spontaneity) [2, 13]: P | 24 h separation, amount [3]: Tr. | 1 h separation, amount [4, 14]: 4.4 mL | 1 h separation, appearance [4, 14]: C | 24 h separation, amount [4, 14]: 9.6 mL | 24 h separation, appearance [4, 14]: C | Spon. (spontaneity) [4, 14]: P | 1 h separation, amount [4, 15]: 5.2 mL | 1 h separation, appearance [4, 15]: C | 24 h separation, amount [4, 15]: 9 mL | 24 h separation, appearance [4, 15]: C | Spon. (spontaneity) [4, 15]: F | 1 h separation, amount [4, 16]: NS | 24 h separation, appearance [4, 16]: C | Spon. (spontaneity) [4, 16]: G | 1 h separation, amount [4, 17]: 5.1 mL | 1 h separation, appearance [4, 17]: CO | 24 h separation, amount [4, 17]: 3 O, 2 CO | Spon. (spontaneity) [4, 17]: F | 1 h separation, amount [4, 18]: 1.3 mL | 1 h separation, appearance [4, 18]: C | 24 h separation, amount [4, 18]: 4.1 mL | 24 h separation, appearance [4, 18]: C | Spon. (spontaneity) [4, 18]: F | 1 h separation, amount [4, 19]: 1.8 mL | 1 h separation, appearance [4, 19]: C | 24 h separation, amount [4, 19]: 4.3 mL | 24 h separation, appearance [4, 19]: C | Spon. (spontaneity) [4, 19]: G

CCC=CCCCCCCCCOCCOCCOCCOCCOCCOCCOCCOCCOCCOCCOCCOCCOCCOCCOCCO (mixture of isomers) [A12-16]
Cubic phase region [1]: 30-57 % Actives Level | Hexagonal phase region [1]: 60-70 % Actives Level | Paste phase region [1]: 93-100 % Actives Level | final KU of paint after 24 h [6]: 93-100 KU | 1 h separation, amount [2, 8]: 3.9 mL | 1 h separation, appearance [2, 8]: C | 24 h separation, amount [2, 8]: 5.3 mL | 24 h separation, appearance [2, 8]: C | Spon. (spontaneity) [2, 8]: P | 1 h separation, amount [2, 9]: 2.9 mL | 1 h separation, appearance [2, 9]: C | 24 h separation, amount [2, 9]: 4 mL | 24 h separation, appearance [2, 9]: C | Spon. (spontaneity) [2, 9]: P | 1 h separation, amount [2, 10]: 5.9 mL | 1 h separation, appearance [2, 10]: C | 24 h separation, amount [2, 10]: 6 mL | 24 h separation, appearance [2, 10]: C | Spon. (spontaneity) [2, 10]: F | 1 h separation, amount [2, 11]: 5.5 mL | 1 h separation, appearance [2, 11]: C | 24 h separation, amount [2, 11]: 5 mL | 24 h separation, appearance [2, 11]: C | Spon. (spontaneity) [2, 11]: P | 1 h separation, amount [2, 12]: 1.8 mL | 1 h separation, appearance [2, 12]: CO | 24 h separation, amount [2, 12]: 3 mL | 24 h separation, appearance [2, 12]: GC | Spon. (spontaneity) [2, 12]: F | 1 h separation, amount [2, 13]: 1.9 mL | 1 h separation, appearance [2, 13]: CO | 24 h separation, amount [2, 13]: 3 mL | 24 h separation, appearance [2, 13]: GC | Spon. (spontaneity) [2, 13]: F | 24 h separation, amount [7]: NS | 1 h separation, amount [4, 14]: 4.5 mL | 1 h separation, appearance [4, 14]: C | 24 h separation, amount [4, 14]: 8.5 mL | 24 h separation, appearance [4, 14]: C | Spon. (spontaneity) [4, 14]: P | 1 h separation, amount [4, 15]: 4 mL | 1 h separation, appearance [4, 15]: C | 24 h separation, amount [4, 15]: 7 mL | 24 h separation, appearance [4, 15]: C | Spon. (spontaneity) [4, 15]: P | 1 h separation, amount [4, 16]: NS | Spon. (spontaneity) [4, 16]: G | 1 h separation, amount [4, 17]: 6.2 mL | 1 h separation, appearance [4, 17]: CO | 24 h separation, amount [4, 17]: 2 O, 3.6 CO | Spon. (spontaneity) [4, 17]: F | 1 h separation, amount [4, 18]: 1.5 mL | 1 h separation, appearance [4, 18]: C | 24 h separation, amount [4, 18]: 3 mL | 24 h separation, appearance [4, 18]: C | Spon. (spontaneity) [4, 18]: F | 1 h separation, amount [4, 19]: 1.5 mL | 1 h separation, appearance [4, 19]: C | 24 h separation, amount [4, 19]: 3 mL | 24 h separation, appearance [4, 19]: C | Spon. (spontaneity) [4, 19]: F
